Experiments:
Faecalibacterium = Faecalibacterium proliferative effect in vivo: cell number in feces of infants by real-time PCR; design: species or system human (infants); conditions: for mean number of cells of Faecalibacterium (log10) / mean number of cells of Faecalibacterium per g feces: infants, oral, daily 1-3 g; for Significant difference (vs 0 week): Wilcoxon signed rank test; for cell number of Faecalibacterium over study period (in words): 12-week study
Source text: 58 infants from 6 months old to 6 years old were divided into 2 groups of 29 infants and they were designated 1-Kestose Group and Maltose Group. 1-Kestose Group took 1-kestose (purity 98% by mass or more, B Food Science Co., Ltd.) orally and Maltose Group took maltose (purity of 92% by mass or more, “Sunmalt-S” powder, Sanwa Starch Co., Ltd.) orally every day during the study period. The test period was 12 weeks. The daily intake of 1-kestose or maltose was 1 g (estimated intake; 0.121 g/kg body weight/day) for infants under 1 year old, 2 g (estimated intake; 0.169 g/kg body weight/day) for infants from 1 to 3 years old, and 3 g (estimated intake; 0.170 g/kg body weight/day) for infants from 4 to 6 years old. […] The estimated intake mentioned above was calculated based on the age-specific body weight data published in “2010 National growth survey on preschool children of the Ministry of Health, Labour and Welfare”. More specifically, the male and female medians were separately calculated from the minimums and the maximums of the body weight data within the age ranges of the study participants of Example 2 and the means of the medians were calculated. Subsequently, the male and female means of the means of the medians were calculated as estimated body weights. The estimated body weights were 8.26 kg for under 1 year old, 11.85 kg for 1 to 3 years old, and 17.62 kg for 4 to 6 years old. […] The numbers of cells of Faecalibacterium in the recovered feces were quantified by real-time PCR. Specifically, genomic DNA was first extracted from the feces using the reagent for genome extraction “Ultra Clean Soil DNA Isolation Kit” (Mo Bio Laboratories Inc.) and “High Pure PCR Template Preparation Kit” (Roche). […] The standard curve was generated based on the result of real-time PCR performed under the same conditions using genomic DNA extracted in the same way from Faecalibacterium prausnitzii strain ATCC27768 strain cultured in pure culture and counted under a microscope. The mean of cell numbers was calculated for each group.

[1] = tested on: Faecalibacterium prausnitzii strain ATCC27768; assay: Faecalibacterium proliferative effect in vitro: culture turbidity with oligosaccharide added; type: cell-based; conditions: for turbidity (OD value) at 660 nm: oligosaccharide 5.0 g/L, 37° C., anaerobic
Description: Liquid media of the following composition was prepared sterile. 1-Kestose (purity of 99% by mass, B Food Science Co., Ltd.), nystose (purity of 98% by mass, Wako Pure Chemical Industries, Ltd.), xylooligosaccharide (purity of 99% by mass, B Food Science Co., Ltd.), raffinose (purity of 98% by mass, Meiji Food Materia Co., Ltd.) and lactosucrose (purity of 89% by mass, Ensuiko Sugar Refining Co., Ltd.) were used as oligosaccharides. Moreover, a liquid medium of the following composition with no oligosaccharide was also prepared as a control.
[Composition of Liquid Medium/Per L] (Final pH: 7.0)
Casein digest 15.0 g, yeast extract 5.0 g, L-cystine 0.5 g, sodium chloride 2.5 g, thioglycolic acid 0.5 g, tryptophan 25 mg, hemin proper quantity, vitamin K1 proper quantity, oligosaccharide 5.0 g.
A prepared liquid medium was inoculated with Faecalibacterium prausnitzii strain ATCC27768 precultured until confluent to a turbidity with an OD (Optical Density) value at 660 nm of 0.05 to 0.06. The inoculated culture was cultured statically at 37° C. in anaerobic environment and the turbidity (OD value) at 660 nm was measured with a spectrophotometer 24 hours, 48 hours, and 72 hours later. Moreover, the relation between OD value and the duration of culture is illustrated in a line graph of FIG. 1. Moreover, OD values at a duration of time of 72 hours are illustrated in a bar graph of FIG. 2.

Compound | mean number of cells of Faecalibacterium (log10) (Faecalibacterium; 0 week) | mean number of cells of Faecalibacterium per g feces (Faecalibacterium; 0 week) | change of cell number from 0 weeks (in words) (Faecalibacterium; 6 weeks) | Significant difference (vs 0 week) (Faecalibacterium; 6 weeks) | mean number of cells of Faecalibacterium (log10) (Faecalibacterium; 6 weeks) | mean number of cells of Faecalibacterium per g feces (Faecalibacterium; 6 weeks) | cell number of Faecalibacterium over study period (in words) (Faecalibacterium) | change of cell number from 0 weeks (in words) (Faecalibacterium; 12 weeks) | Significant difference (vs 0 week) (Faecalibacterium; 12 weeks) | mean number of cells of Faecalibacterium (log10) (Faecalibacterium; 12 weeks) | mean number of cells of Faecalibacterium per g feces (Faecalibacterium; 12 weeks) | turbidity (OD value) at 660 nm ([1]; duration of culture 0 hour) | turbidity (OD value) at 660 nm ([1]; duration of culture 24 hours) | turbidity (OD value) at 660 nm ([1]; duration of culture 48 hours) | turbidity (OD value) at 660 nm ([1]; duration of culture 72 hours) | OD values versus control and other oligosaccharides (in words) ([1]; 24 hours, 48 hours and 72 hours) | increase of cell number from 0 weeks (Faecalibacterium; 6 weeks) | increase of cell number from 0 weeks (Faecalibacterium; 12 weeks)
OC[C@H]1O[C@H](O[C@H]2[C@H](O)[C@@H](O)C(O)O[C@@H]2CO)[C@H](O)[C@@H](O)[C@@H]1O (mixture of isomers) [Maltose, maltose] | 6.88 cells log10/g feces | 7.6 × 10^6 cells/g feces | slightly decreased | Not found | 6.77 cells log10/g feces | 5.8 × 10^6 cells/g feces | did not increase | slightly increased | Not found | 7.12 cells log10/g feces | 1.3 × 10^7 cells/g feces |  |  |  |  |  |  | 
OC[C@H]1O[C@H](OC[C@H]2O[C@H](O[C@]3(CO)O[C@H](CO)[C@@H](O)[C@@H]3O)[C@H](O)[C@@H](O)[C@@H]2O)[C@H](O)[C@@H](O)[C@H]1O [Raffinose, raffinose] |  |  |  |  |  |  |  |  |  |  |  | 0.052 | 0.251 | 0.191 | 0.246 |  |  | 
OC[C@H]1O[C@@](CO)(OC[C@@]2(O[C@H]3O[C@H](CO)[C@@H](O)[C@H](O)[C@H]3O)O[C@H](CO)[C@@H](O)[C@@H]2O)[C@@H](O)[C@@H]1O [1-kestose] | 6.57 cells log10/g feces | 3.7 × 10^6 cells/g feces |  | Not found | 7.16 cells log10/g feces | 1.4 × 10^7 cells/g feces | increased markedly |  | Found | 7.54 cells log10/g feces | 3.5 × 10^7 cells/g feces | 0.063 | 0.345 | 0.885 | 1.803 | markedly greater | ≥ 3.5 times | ≥ 9 times
OC[C@H]1O[C@@H](O[C@H]2[C@H](O)[C@@H](O)[C@@H](O[C@]3(CO)O[C@H](CO)[C@@H](O)[C@@H]3O)O[C@@H]2CO)[C@H](O)[C@@H](O)[C@H]1O [Lactosucrose, lactosucrose] |  |  |  |  |  |  |  |  |  |  |  | 0.055 | 0.298 | 0.448 | 0.295 |  |  | 
OC[C@H]1O[C@@](CO)(OC[C@@]2(OC[C@@]3(O[C@H]4O[C@H](CO)[C@@H](O)[C@H](O)[C@H]4O)O[C@H](CO)[C@@H](O)[C@@H]3O)O[C@H](CO)[C@@H](O)[C@@H]2O)[C@@H](O)[C@@H]1O [Nystose, nystose] |  |  |  |  |  |  |  |  |  |  |  | 0.063 | 0.290 | 0.443 | 0.305 |  |  | 

— patent publication US20190070204A1, “PROLIFERATIVE AGENT FOR FAECALIBACTERIUM” (B FOOD SCIENCE CO., LTD., priority 2016, published 2019)
